Measured values from patent US12448369B2 (Edgewise Therapeutics, Inc., priority 2023, dated 2025).
Marks after values point to notes of the source that are not given here.

What was measured:
[1] = target: T1, Porcine ventricle myofibrils (ventricular myosin ATPase) (Sus scrofa, UniProt P79293); assay: Myofibril ATPase assay, porcine ventricle myofibrils; format: biochemical, porcine (Yucatan minipigs); conditions: porcine ventricle myofibrils
T1 construct: Myofibrils from porcine cardiac muscle was isolated from the left ventricle of Yucatan minipigs; tissue Exemplar Genetics; host or cells: left ventricle of Yucatan minipigs, myofibrils prepared in house
How it was run: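 ATPase activity of porcine left-ventricular myofibrils is tracked as the slope of NADH loss at 340 nm through a PK/LDH couple. Values are the concentrations that bring activity to 75% (inhibitors) or 125% (activators) of vehicle.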

[2] = system: Porcine atria myofibrils (atrial myosin ATPase); assay: Myofibril ATPase assay, porcine atria myofibrils; format: biochemical; conditions: porcine atria myofibrils
How it was run: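 Porcine atrial myofibrils were tested in a PK/LDH-coupled system where ADP from myosin ATPase drives NADH oxidation. Absorbance at 340 nm was read every 1.5-2 min for 75 min and slopes were normalized to vehicle wells. A 4-parameter logistic fit gave Y75 (25% inhibition) or Y125 (activation) concentrations.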

[3] = system: Rabbit Psoas myofibrils (skeletal myosin ATPase); assay: Myofibril ATPase assay, rabbit psoas (skeletal) myofibrils; format: biochemical; conditions: rabbit psoas myofibrils
How it was run: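 ATPase activity of Triton-washed myofibrils was measured by PK/LDH coupling, following NADH loss at 340 nm every 1.5–2 min for 75 min in PIPES/Ca/EGTA buffer at pH 7.0. Slopes, normalized to vehicle (100%), were fitted to a 4-parameter logistic model. Values are Y75 (25% inhibition) or Y125 (activators).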

[4] = Y75 value (75% activity relative to no compound)

T1 sequence (P79293 whole entry): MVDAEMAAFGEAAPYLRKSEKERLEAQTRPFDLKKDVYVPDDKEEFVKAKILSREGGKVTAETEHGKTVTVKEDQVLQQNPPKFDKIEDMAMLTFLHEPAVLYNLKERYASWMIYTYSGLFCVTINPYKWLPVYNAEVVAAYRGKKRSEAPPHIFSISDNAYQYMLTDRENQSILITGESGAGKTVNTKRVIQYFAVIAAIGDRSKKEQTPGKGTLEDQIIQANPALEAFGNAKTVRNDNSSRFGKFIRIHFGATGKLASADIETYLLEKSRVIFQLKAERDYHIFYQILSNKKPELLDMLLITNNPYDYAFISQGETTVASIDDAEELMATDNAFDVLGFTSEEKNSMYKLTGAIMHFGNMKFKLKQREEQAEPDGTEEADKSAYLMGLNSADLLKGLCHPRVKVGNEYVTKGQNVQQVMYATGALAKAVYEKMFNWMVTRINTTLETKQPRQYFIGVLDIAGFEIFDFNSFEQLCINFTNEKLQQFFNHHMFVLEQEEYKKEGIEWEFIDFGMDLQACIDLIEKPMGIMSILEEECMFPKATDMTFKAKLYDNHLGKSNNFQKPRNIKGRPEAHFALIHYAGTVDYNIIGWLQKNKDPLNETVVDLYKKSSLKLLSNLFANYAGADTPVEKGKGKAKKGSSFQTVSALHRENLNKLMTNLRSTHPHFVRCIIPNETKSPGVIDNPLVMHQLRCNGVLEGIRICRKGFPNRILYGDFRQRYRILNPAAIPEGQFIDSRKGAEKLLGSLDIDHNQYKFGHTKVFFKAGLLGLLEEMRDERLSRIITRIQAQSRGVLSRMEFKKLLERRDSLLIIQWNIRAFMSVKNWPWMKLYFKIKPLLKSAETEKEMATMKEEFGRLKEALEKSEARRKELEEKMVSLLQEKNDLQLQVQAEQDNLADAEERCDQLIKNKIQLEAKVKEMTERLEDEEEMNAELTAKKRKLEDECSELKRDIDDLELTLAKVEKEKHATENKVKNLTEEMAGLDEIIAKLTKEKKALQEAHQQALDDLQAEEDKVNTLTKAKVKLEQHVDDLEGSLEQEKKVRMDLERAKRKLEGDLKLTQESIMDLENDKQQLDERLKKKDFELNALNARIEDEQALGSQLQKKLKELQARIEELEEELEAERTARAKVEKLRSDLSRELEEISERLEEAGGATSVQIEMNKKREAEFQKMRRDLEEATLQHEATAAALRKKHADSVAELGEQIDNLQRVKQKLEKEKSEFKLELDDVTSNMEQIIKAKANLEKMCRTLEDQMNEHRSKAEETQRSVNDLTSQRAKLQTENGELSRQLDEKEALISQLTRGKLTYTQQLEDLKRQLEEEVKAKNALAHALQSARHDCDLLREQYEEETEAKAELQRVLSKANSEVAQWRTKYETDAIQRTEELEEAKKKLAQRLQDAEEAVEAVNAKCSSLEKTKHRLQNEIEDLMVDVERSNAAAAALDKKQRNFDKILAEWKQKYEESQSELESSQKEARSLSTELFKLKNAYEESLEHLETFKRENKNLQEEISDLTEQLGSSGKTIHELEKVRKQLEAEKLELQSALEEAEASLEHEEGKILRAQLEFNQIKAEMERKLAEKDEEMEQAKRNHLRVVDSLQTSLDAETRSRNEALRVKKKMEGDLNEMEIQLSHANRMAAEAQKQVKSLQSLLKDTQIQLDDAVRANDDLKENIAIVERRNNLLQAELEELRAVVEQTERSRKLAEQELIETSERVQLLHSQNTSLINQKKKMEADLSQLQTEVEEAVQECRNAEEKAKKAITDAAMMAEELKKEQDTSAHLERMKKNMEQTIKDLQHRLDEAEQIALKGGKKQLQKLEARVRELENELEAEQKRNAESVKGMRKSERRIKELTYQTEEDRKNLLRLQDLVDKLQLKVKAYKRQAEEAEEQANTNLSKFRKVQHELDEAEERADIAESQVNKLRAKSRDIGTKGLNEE

Compound | Ventricular EC25 ([1]; Y75 value (no ‡ mark)) | Atrial EC25 ([2]; Y75 value (no ‡ mark)) | Skeletal EC25 ([3]; Y75 value (no ‡ mark)) | Ventricular EC25 ([1]; Y75 value) | Atrial EC25 [2, 4] | Skeletal EC25 ([3]; Y75 value) | Skeletal EC25 (Y125 value, marked ‡) ([3]; Y125 value, not a Y75 value) | Skeletal EC25 ([3]; ‡ Y125 value, not a Y75 value (125% activity relative to no compound))
Cc1c(C(F)(F)C(=O)N[C@H](C)c2ncc(C#N)cn2)c(=O)[nH]c2ccc(F)c(C(F)(F)F)c12 (single isomer, unassigned) [Compound 2513] | 1.62 µM | 0.43 µM | 0.34 µM |  |  |  |  | 
Cc1nccc2[nH]c(=O)c(CC(=O)N[C@H](CO)c3ccccn3)c(C)c12 (single isomer, unassigned) [compound 316] |  |  |  | 100.00 µM | 100.00 µM | 100.00 µM |  | 
Cc1nccc2[nH]c(=O)c([C@@H](C)C(=O)N[C@H](C)c3ncc(C#N)cc3F)c(C)c12 (single isomer, unassigned) [compound 191] |  |  |  | 100.00 µM | 1.73 µM | 4.04 µM |  | 
C[C@H](NC(=O)Cc1c(Cl)c2cnccc2[nH]c1=O)c1ccc(C#N)cn1 [compound 454] |  |  |  | 52.30 µM | 7.21 µM | 4.25 µM |  | 
C[C@H](NC(=O)C1(c2cc3c(F)c(F)ccc3[nH]c2=O)CC1)c1cnc(C#N)cn1 (single isomer, unassigned) [compound 4830] | 100.00 µM | 0.46 µM | 1.34 µM |  |  |  |  | 
Cc1c(C(F)(F)C(=O)N[C@H](C)c2cnc(C#N)cn2)c(=O)[nH]c2ccc(F)cc12 (single isomer, unassigned) [compound 4827] | 0.71 µM | 0.23 µM | 0.08 µM |  |  |  |  | 
Cc1cccc2[nH]c(=O)c(CC(=O)N[C@@H](C)c3ccc(C#N)cn3)c(C#N)c12 [compound 1111] | 2.28 µM | 0.49 µM | 0.26 µM |  |  |  |  | 
O=C(Cc1cc2c(F)c(F)ccc2[nH]c1=O)N1CC2CC1c1ccccc12 (stereo not drawn) [compound 4504] | 0.47 µM | 0.92 µM | 0.30 µM |  |  |  |  | 
C[C@@H](NC(=O)Cc1cc2cc(F)c(F)cc2[nH]c1=O)c1cnc(C#N)nc1 [compound 1074] | 100.00 µM | 100.00 µM | 100.00 µM |  |  |  |  | 
Cc1nccc2[nH]c(=O)c(C3(C(=O)N[C@H](C)c4ncc(C#N)cc4F)CC3)c(C)c12 (single isomer, unassigned) [compound 3519] |  |  |  | 17.07 µM | 0.94 µM |  | 97.12‡ μM | 
Cc1c(F)ccc2[nH]c(=O)c(C(F)(F)C(=O)N[C@@H](C)c3ncc(C#N)cn3)c(C#N)c12 (single isomer, unassigned) [compound 2512] | 33.47 µM | 1.53 µM |  |  |  |  |  | 100.00‡ μM
Cc1c(CC(=O)N[C@H](CO)c2ncc(C#N)cc2F)c(=O)[nH]c2cnnc(C#N)c12 [compound 163] |  |  |  | 100.00 µM | 0.94 µM | 12.34 µM |  | 
Cc1c(C(F)(F)C(=O)N[C@H](C)c2ncc(C#N)cn2)c(=O)[nH]c2ccc(F)c(C#N)c12 (single isomer, unassigned) [compound 2521] | 1.83 µM | 0.32 µM | 0.41 µM |  |  |  |  | 

Further lines, results first:

Ventricular EC25 ([1]; Y75 value (no ‡ mark)) | Atrial EC25 ([2]; Y75 value (no ‡ mark)) | Skeletal EC25 ([3]; Y75 value (no ‡ mark)) | Ventricular EC25 ([1]; Y75 value) | Atrial EC25 [2, 4] | Skeletal EC25 ([3]; Y75 value) | Skeletal EC25 (Y125 value, marked ‡) ([3]; Y125 value, not a Y75 value) | Skeletal EC25 ([3]; ‡ Y125 value, not a Y75 value (125% activity relative to no compound)) | Compound
100.00 µM | 100.00 µM | 100.00 µM |  |  |  |  |  | Cc1c(C2(C(=O)N[C@H](C)c3cccc(C#N)n3)CC2)c(=O)[nH]c2ccc(F)cc12 (single isomer, unassigned) [compound 2579]
 |  |  | 18.33 µM | 0.91 µM | 0.30 µM |  |  | Cc1nccc2[nH]c(=O)c([C@@H](C)C(=O)N[C@@H](C)c3ccc(F)cc3F)c(C)c12 (single isomer, unassigned) [compound 399]
 |  |  | 0.31 µM | 0.10 µM | 0.01 µM |  |  | CCOc1nccc2[nH]c(=O)c(CC(=O)N[C@@H](C)c3ccc(F)cc3F)c(C)c12 [compound 381]
 |  |  | 100.00 µM | 20.63 µM | 10.76 µM |  |  | Cc1nccc2[nH]c(=O)c([C@H](C)C(=O)N[C@@H](C)c3ccc(F)cc3F)c(C(F)(F)F)c12 (single isomer, unassigned) [compound 413]
1.50 µM | 1.18 µM | 100.00 µM |  |  |  |  |  | Cc1c(CC(=O)N[C@H](C)c2ncc(C#N)cn2)c(=O)[nH]c2cccc(F)c12 (single isomer, unassigned) [compound 2041]
 |  |  | 23.41 µM | 18.17 µM | 1.78 µM |  |  | Cc1nccc2[nH]c(=O)c(CC(=O)N[C@@H](C)c3ccc(C#N)cn3)c(C)c12 (single isomer, unassigned) [compound 254]
 |  |  | 100.00 µM | 100.00 µM | 100.00 µM |  |  | COc1cccc([C@@H](C)NC(=O)Cc2c(C)c3c(C)nccc3[nH]c2=O)n1 (single isomer, unassigned) [compound 309]
0.05 µM | 0.02 µM | 0.02 µM |  |  |  |  |  | C[C@H](NC(=O)Cc1cc2c(F)c(F)ccc2[nH]c1=O)c1ncc(F)cc1F [compound 34]
69.62 µM | 27.67 µM | 11.40 µM |  |  |  |  |  | C[C@H](NC(=O)Cc1cc2cc(F)c(F)cc2[nH]c1=O)c1ccc(C#N)cn1 [compound 1115]
 |  |  | 42.84 µM | 100.00 µM | 0.35 µM |  |  | Cc1cc(F)cc(F)c1[C@@H](C)NC(=O)Cc1c(C)c2c(C)nccc2[nH]c1=O (single isomer, unassigned) [compound 404]
 |  |  | 10.63 µM | 4.56 µM | 0.49 µM |  |  | Cc1c(CC(=O)N[C@H](C)c2ncc(C#N)cc2F)c(=O)[nH]c2ccnc(C#N)c12 (single isomer, unassigned) [compound 284]
 |  |  | 1.33 µM | 0.16 µM | 0.03 µM |  |  | Cc1c([C@@H](C)C(=O)N[C@@H](C)c2ccc(F)cc2F)c(=O)[nH]c2ccnc(F)c12 (single isomer, unassigned) [compound 376]
 |  |  | 1.17 µM | 0.35 µM | 2.85 µM |  |  | Cc1nc(C#N)cnc1[C@@H](C)NC(=O)Cc1c(C)c2nc(C(F)(F)F)ccc2[nH]c1=O (single isomer, unassigned) [compound 138]
 |  |  | 0.31 µM | 0.06 µM | 0.06 µM |  |  | Cc1c(CC(=O)N[C@@H](C)c2ccc(F)cc2F)c(=O)[nH]c2ccc(Br)nc12 [compound 357]
 |  |  | 0.96 µM | 0.11 µM | 0.02 µM |  |  | Cc1c(CC(=O)N[C@@H](CO)c2ccc(F)cc2F)c(=O)[nH]c2ccnc(C#N)c12 [compound 230]
 |  |  | 100.00 µM | 100.00 µM | 100.00 µM |  |  | Cc1nccc2[nH]c(=O)c(CC(=O)N[C@H](c3ccc(F)cc3F)C(C)(C)O)c(C)c12 (single isomer, unassigned) [compound 272]
8.08 µM | 8.40 µM | 22.82 µM |  |  |  |  |  | C[C@@H](NC(=O)Cc1cc2cc(F)c(F)cc2[nH]c1=O)c1ccc(C#N)cn1 [compound 1114]
1.07 µM | 0.34 µM | 0.33 µM |  |  |  |  |  | Cc1nc(C#N)cnc1[C@@H](C)NC(=O)C(F)(F)c1c(C)c2cc(F)ccc2[nH]c1=O (single isomer, unassigned) [compound 2567]
